Laboratory results reported in the supplement of paper PMC10307832.

Legend:
Test in all cases: relative viability (nuclei count vs DMSO), 5 days (fraction); higher = more cells survive
ABC-1 = test system: ABC-1
How it was run: (§1)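 Lung cancer cell lines were seeded in 1536-well plates and dosed by pin tool the next day, with either a single drug or a fixed anchor-drug dose combined with five library-drug doses (not always all listed) spaced in √10 steps. Five days later, one step fixed the cells and stained their nuclei (final 0.05% Triton X-100, 1% formaldehyde, 1 ug/ml Hoechst), and nuclei were counted on 4× images. Relative viability is the nuclei count in treated wells divided by the count in vehicle wells, and each value is the median of duplicate plates.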

COR-L23 = test system: COR-L23
How it was run: as §1

ChaGo-K-1 = test system: ChaGo-K-1
How it was run: as §1

EMC-BAC-2 = test system: EMC-BAC-2
How it was run: as §1

HARA = test system: HARA
How it was run: as §1

HCC-15 = test system: HCC-15
How it was run: as §1

HCC-366 = test system: HCC-366
How it was run: as §1

HCC-78 = test system: HCC-78
How it was run: as §1

HOP-62 = test system: HOP-62
How it was run: as §1

LC-2-ad = test system: LC-2-ad
How it was run: as §1

NCI-H1395 = test system: NCI-H1395
How it was run: as §1

NCI-H1793 = test system: NCI-H1793
How it was run: as §1

NCI-H1944 = test system: NCI-H1944
How it was run: as §1

NCI-H1993 = test system: NCI-H1993
How it was run: as §1

NCI-H2023 = test system: NCI-H2023
How it was run: as §1

NCI-H2126 = test system: NCI-H2126
How it was run: as §1

NCI-H2228 = test system: NCI-H2228
How it was run: as §1

NCI-H23 = test system: NCI-H23
How it was run: as §1

NCI-H2405 = test system: NCI-H2405
How it was run: as §1

NCI-H358 = test system: NCI-H358
How it was run: as §1

NCI-H838 = test system: NCI-H838
How it was run: as §1

SK-LU-1 = test system: SK-LU-1
How it was run: as §1

SMILES: CCN(CC)CCCCNc1ncc2cc(-c3cc(OC)cc(OC)c3)c(NC(=O)NC(C)(C)C)nc2n1 + COc1cc2c(Oc3ccc(NC(=O)C4(C(=O)Nc5ccc(F)cc5)CC4)cc3F)ccnc2cc1OCCCN1CCOCC1 [Foretinib] (partner 0.25 µM)
- relative viability (ABC-1; first compound 0.01 µM): 1.22
- relative viability (ABC-1; first compound 0.03162 µM): 0.951
- relative viability (ABC-1; first compound 0.1 µM): 1.3
- relative viability (ABC-1; first compound 0.3162 µM): 1.14
- relative viability (ABC-1; first compound 1 µM): 1.16
- relative viability (COR-L23; first compound 0.01 µM): 1.11
- relative viability (COR-L23; first compound 0.03162 µM): 0.981
- relative viability (COR-L23; first compound 0.1 µM): 1.14
- relative viability (COR-L23; first compound 0.3162 µM): 1.04
- relative viability (COR-L23; first compound 1 µM): 1.05
- relative viability (ChaGo-K-1; first compound 0.01 µM): 0.903
- relative viability (ChaGo-K-1; first compound 0.03162 µM): 1.05
- relative viability (ChaGo-K-1; first compound 0.1 µM): 0.936
- relative viability (ChaGo-K-1; first compound 0.3162 µM): 0.956
- relative viability (ChaGo-K-1; first compound 1 µM): 0.757
- relative viability (EMC-BAC-2; first compound 0.01 µM): 0.54
- relative viability (EMC-BAC-2; first compound 0.03162 µM): 1.02
- relative viability (EMC-BAC-2; first compound 0.1 µM): 0.983
- relative viability (EMC-BAC-2; first compound 0.3162 µM): 1.13
- relative viability (EMC-BAC-2; first compound 1 µM): 0.952
- relative viability (HARA; first compound 0.01 µM): 0.996
- relative viability (HARA; first compound 0.03162 µM): 0.848
- relative viability (HARA; first compound 0.1 µM): 0.998
- relative viability (HARA; first compound 0.3162 µM): 0.985
- relative viability (HARA; first compound 1 µM): 0.493
- relative viability (HCC-15; first compound 0.01 µM): 1.04
- relative viability (HCC-15; first compound 0.03162 µM): 1.19
- relative viability (HCC-15; first compound 0.1 µM): 1.03
- relative viability (HCC-15; first compound 0.3162 µM): 1.1
- relative viability (HCC-15; first compound 1 µM): 0.989
- relative viability (HCC-366; first compound 0.01 µM): 0.951
- relative viability (HCC-366; first compound 0.03162 µM): 0.941
- relative viability (HCC-366; first compound 0.1 µM): 1.05
- relative viability (HCC-366; first compound 0.3162 µM): 0.981
- relative viability (HCC-366; first compound 1 µM): 0.999
- relative viability (HCC-78; first compound 0.01 µM): 0.583
- relative viability (HCC-78; first compound 0.03162 µM): 0.53
- relative viability (HCC-78; first compound 0.1 µM): 0.586
- relative viability (HCC-78; first compound 0.3162 µM): 0.55
- relative viability (HCC-78; first compound 1 µM): 0.56
- relative viability (HOP-62; first compound 0.01 µM): 1.15
- relative viability (HOP-62; first compound 0.03162 µM): 1.13
- relative viability (HOP-62; first compound 0.1 µM): 1.24
- relative viability (HOP-62; first compound 0.3162 µM): 1.16
- relative viability (HOP-62; first compound 1 µM): 1.12
- relative viability (LC-2-ad; first compound 0.01 µM): 1.09
- relative viability (LC-2-ad; first compound 0.03162 µM): 0.998
- relative viability (LC-2-ad; first compound 0.1 µM): 1.11
- relative viability (LC-2-ad; first compound 0.3162 µM): 0.951
- relative viability (LC-2-ad; first compound 1 µM): 0.966
- relative viability (NCI-H1395; first compound 0.01 µM): 0.999
- relative viability (NCI-H1395; first compound 0.03162 µM): 1.02
- relative viability (NCI-H1395; first compound 0.1 µM): 0.912
- relative viability (NCI-H1395; first compound 0.3162 µM): 0.887
- relative viability (NCI-H1395; first compound 1 µM): 0.818
- relative viability (NCI-H1793; first compound 0.01 µM): 0.734
- relative viability (NCI-H1793; first compound 0.03162 µM): 0.759
- relative viability (NCI-H1793; first compound 0.1 µM): 0.716
- relative viability (NCI-H1793; first compound 0.3162 µM): 0.676
- relative viability (NCI-H1793; first compound 1 µM): 0.403
- relative viability (NCI-H1944; first compound 0.01 µM): 0.848
- relative viability (NCI-H1944; first compound 0.03162 µM): 0.873
- relative viability (NCI-H1944; first compound 0.1 µM): 0.844
- relative viability (NCI-H1944; first compound 0.3162 µM): 0.946
- relative viability (NCI-H1944; first compound 1 µM): 0.771
- relative viability (NCI-H1993; first compound 0.01 µM): 0.751
- relative viability (NCI-H1993; first compound 0.03162 µM): 0.791
- relative viability (NCI-H1993; first compound 0.1 µM): 0.934
- relative viability (NCI-H1993; first compound 0.3162 µM): 0.917
- relative viability (NCI-H1993; first compound 1 µM): 0.714
- relative viability (NCI-H2023; first compound 0.01 µM): 0.954
- relative viability (NCI-H2023; first compound 0.03162 µM): 0.961
- relative viability (NCI-H2023; first compound 0.1 µM): 0.864
- relative viability (NCI-H2023; first compound 0.3162 µM): 0.853
- relative viability (NCI-H2023; first compound 1 µM): 0.758
- relative viability (NCI-H2126; first compound 0.01 µM): 1.37
- relative viability (NCI-H2126; first compound 0.03162 µM): 1.3
- relative viability (NCI-H2126; first compound 0.1 µM): 1.14
- relative viability (NCI-H2126; first compound 0.3162 µM): 1.22
- relative viability (NCI-H2126; first compound 1 µM): 1.11
- relative viability (NCI-H2228; first compound 0.01 µM): 1.03
- relative viability (NCI-H2228; first compound 0.03162 µM): 1.01
- relative viability (NCI-H2228; first compound 0.1 µM): 1.35
- relative viability (NCI-H2228; first compound 0.3162 µM): 0.998
- relative viability (NCI-H2228; first compound 1 µM): 0.635
- relative viability (NCI-H23; first compound 0.01 µM): 1.01
- relative viability (NCI-H23; first compound 0.03162 µM): 0.831
- relative viability (NCI-H23; first compound 0.1 µM): 1.23
- relative viability (NCI-H23; first compound 0.3162 µM): 0.984
- relative viability (NCI-H23; first compound 1 µM): 0.955
- relative viability (NCI-H2405; first compound 0.01 µM): 1.05
- relative viability (NCI-H2405; first compound 0.03162 µM): 1.05
- relative viability (NCI-H2405; first compound 0.1 µM): 1.03
- relative viability (NCI-H2405; first compound 0.3162 µM): 1.07
- relative viability (NCI-H2405; first compound 1 µM): 1.04
- relative viability (NCI-H358; first compound 0.01 µM): 0.71
- relative viability (NCI-H358; first compound 0.03162 µM): 0.638
- relative viability (NCI-H358; first compound 0.1 µM): 0.679
- relative viability (NCI-H358; first compound 0.3162 µM): 0.815
- relative viability (NCI-H358; first compound 1 µM): 0.625
- relative viability (NCI-H838; first compound 0.01 µM): 1.01
- relative viability (NCI-H838; first compound 0.03162 µM): 0.958
- relative viability (NCI-H838; first compound 0.1 µM): 1.19
- relative viability (NCI-H838; first compound 0.3162 µM): 0.986
- relative viability (NCI-H838; first compound 1 µM): 0.789
- relative viability (SK-LU-1; first compound 0.01 µM): 0.942
- relative viability (SK-LU-1; first compound 0.03162 µM): 0.78
- relative viability (SK-LU-1; first compound 0.1 µM): 1.12
- relative viability (SK-LU-1; first compound 0.3162 µM): 1.07
- relative viability (SK-LU-1; first compound 1 µM): 0.662
